Measured values as given in patent publication US7892764B2, “System for seizure suppression” (priority 2006, dated 2011).

Tests used:
acute hippocampal slices = assay: Low Mg2+-induced injury of acute hippocampal slices, LDH release; type: cell-based; conditions: aCSF without Mg2+ plus 100 μM amiloride for 2 hr, medium collected 6 hr after incubation
Protocol: To determine whether ASIC blockade affects seizure-induced neuronal injury, we tested the effect of ASIC blockade on low Mg^2+-induced injury of acute hippocampal slices. 400 μm-thick coronal slices were cut and placed on a Millipore membrane in 6-well plates (2 slices in each well). Slices were randomly divided into three groups treated with the following different solutions (for 2 hr): oxygenated aCSF with normal Mg^2+; oxygenated aCSF without Mg^2+; oxygenated aCSF without Mg^2+ plus 100 μM amiloride. 100 μL medium was collected from each slice 6 hr following the incubation for the measurement of lactate dehydrogenase (LDH). The LDH value was then normalized to the maximal releasable LDH to give % of cell death. With aCSF containing normal Mg^2+, 6.2±0.9% of maximal LDH release was recorded. In the absence of Mg^2+, this value was increased to 13.0±2.2%. Addition of aniloride decreased relative LDH release to 6.0±0.4% (n=3).
LDH Assay. Lactate dehydrogenase (LDH) is a stable cytoplasmic enzyme present in all cells. […] LDH assays were performed using the Cytotoxicity Detection Kit (Cat#1644793, Roche Molecular Biochemicals) and a spectrophotometric mutiwell plate reader (SPECTRAmax, Molecular Devices). […] Absorbance at OD490 nm was measured 30 min after the reaction. Absorbance at a reference wavelength (OD620 nm) was subtracted from the measurement.

C57BL/6 mice = assay: In vivo kainic acid (KA)-induced seizure model, EEG and TUNEL staining; design: species or system mouse
Protocol: In an in vivo model of epilepsy (Araki et al., 2002), WT and ASIC1^−/− C57BL/6 mice. 20-25 g, had unilateral microinjection of kainic acid (KA) into the basolateral amygdala nucleus. […] Identical KA injection in ASIC1^−/− mice produced attenuated polyspike EEG activity (total duration: 109.8±30.8 sec, n=6, p<0.01 versus WT control, FIG. 8D).
TUNEL staining. Following cryostat sectioning, slices were air-dried, fixed in 10% formalin for 15 min, washed three times in PBS, permeabilized in 3% Triton X-100 for 20 min, and washed three times in PBS. Slices were subsequently incubated with a reaction mixture that contained FITC-dUTP and 300 U/mL terminal deoxy-transferase (TdT) for 90 min at 37° C. Cultures were then viewed with a fluorescent microscope at an excitation/emission wavelength of 500/550 nm (green) for FITC-TUNEL labeled cells.
Intracerebroventricular injection in mice. The procedure was performed as described in our previous studies (Pignataro et al., 2007; Xiong et al., 2004). A burr hole was drilled through the skull and a cannula inserted in the right lateral ventricle. The cannula was inserted stereotactically at 0.5 mm posterior, 1.0 mm lateral, and 3.0 mm ventral to the bregma, 0.5 μL of aCSF, amiloride, or PcTX1 was infused 60 min before KA injection.
In vivo KA-induced seizure model. A KA-induced in vivo seizure model was implemented as described in our previous studies (Araki et al., 2002). The protocol for seizure-induction in vivo in mice was approved by the Institutional Animal Care and Use Committee of Legacy Research. Adult male wild-type and ASIC1^−/− mice with genomic background of C57BL/6, 20-25 g in weight, were used for seizure induction by unilateral microinjection of KA into the basolateral amygdala nucleus based on stereotactic coordinates (AP −0.94 mm, L −2.85 mm, and V −3.75 mm relative to the Bregma). After anesthesia and catheterization of the femoral vein, animals were placed in a stereotactic frame modified with a headpiece compatible for the mouse (Kopf Instruments) and kept under anesthesia using a mixture of 68.5% N2O, 30% O2, and 1.5% isoflurane. Rectal body temperature was kept at 37±1° C. during and after the operation using either a heating pad or heating lamp (Harvard Instruments, Holiiston, Mass.). Using dental cement (Plastics One, Inc.), three skull-mounted recording electrodes were affixed to mice (Plastics One, Inc., Roanoke, Va.) and a 26-gauge steel guide cannula over the intact dura. […] The EEG was monitored for 30 min using a Grass Electroencephalogram (Model 8-16), and lorazepam (6 mg/kg, i.p.) Was then administered to terminate seizures. The EEG was further monitored for up to 30 min to ensure seizure cessation. The duration of polyspike (type 4) EEG activity for each mouse was calculated blind offline. […]

[1] = icv 0.5 μL aCSF containing PcTX1 500 ng/mL, 60 min before KA
[2] = icv PcTX1 500 ng/mL, 24 hr after KA injection

Row | Molecule | relative LDH release (% of maximal releasable LDH, cell death) (acute hippocampal slices) [%] | duration of polyspike (type-4) EEG activity in 30 min (C57BL/6 mice; [1]) [s] | mice showing polyspike EEG activity (C57BL/6 mice; [1]) | average TUNEL positive cells in CA3 (C57BL/6 mice; [2]) | mice showing any CA3 injury (C57BL/6 mice; [2])
1 | NC(N)=NC(=O)c1nc(Cl)c(N)nc1N [amiloride, 3,5-diamino-6-chloro-N(diaminomethylidene)pyrazine-2-carboxamide] | 6.0±0.4 | – | – | – | –
2 | Psalmotoxin 1 [PcTX1] | – | 128.3 ± 60.3 | two out of six | 21.8±14.1 | two out of six
